Measurements: patent US6737383B1, “Herbicidal oxadiazolidines” (priority 1999, dated 2004)

Assays:
giant foxtail = experiment: Test B pre/postemergence giant foxtail; type: in vivo, Setaria faberii
Procedure, shortened: (§1)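 Test chemicals in a non-phytotoxic solvent mixture with surfactant were sprayed preemergence onto planted seeds and postemergence onto plants 2 to 18 cm tall (1- to 4-leaf stage). After twelve to sixteen days in a greenhouse, injury was visually rated against untreated controls from 0 (no effect) to 10 (complete control).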

purple nutsedge = experiment: Test B pre/postemergence purple nutsedge; type: in vivo, Cyperus rotundus
Procedure, shortened: as §1

velvetleaf = experiment: Test B pre/postemergence velvetleaf; type: in vivo, Abutilon theophrasti
Procedure, shortened: as §1

blackgrass = experiment: Test B pre/postemergence blackgrass; type: in vivo, Alopecurus myosuroides
Procedure, shortened: as §1

surinam grass = experiment: Test B pre/postemergence surinam grass; type: in vivo, Brachiaria decumbens
Procedure, shortened: as §1

pigweed = experiment: Test B pre/postemergence pigweed; type: in vivo, Amaranthus retroflexus
Procedure, shortened: as §1

wild oat = experiment: Test B pre/postemergence wild oat; type: in vivo, Avena fatua
Procedure, shortened: as §1

cocklebur = experiment: Test B pre/postemergence cocklebur; type: in vivo, Xanthium strumarium
Procedure, shortened: as §1

morningglory = experiment: Test B pre/postemergence morningglory; type: in vivo, Ipomoea hederacea
Procedure, shortened: as §1

wheat = experiment: Test B pre/postemergence wheat; type: in vivo, Triticum aestivum
Procedure, shortened: as §1

soybean = experiment: Test B pre/postemergence soybean; type: in vivo, Glycine max
Procedure, shortened: as §1

corn = experiment: Test B pre/postemergence corn; type: in vivo, Zea mays
Procedure, shortened: as §1

bedstraw = experiment: Test B pre/postemergence bedstraw; type: in vivo, Galium aparine
Procedure, shortened: as §1

rape = experiment: Test B pre/postemergence rape; type: in vivo, Brassica napus
Procedure, shortened: as §1

crabgrass = experiment: Test B pre/postemergence crabgrass; type: in vivo, Digitaria sanguinalis
Procedure, shortened: as §1

sugar beet = experiment: Test B pre/postemergence sugar beet; type: in vivo, Beta vulgaris
Procedure, shortened: as §1

[1] = Postemergence, Rate 62 g/ha, scale 0 to 10, 0 is no effect, 10 is complete control
[2] = Postemergence, Rate 125 g/ha, scale of 0 to 10 where 0 is no effect and 10 is complete control
[3] = Preemergence, Rate 62 g/ha, scale of 0 to 10 where 0 is no effect and 10 is complete control
[4] = Preemergence, Rate 125 g/ha, scale of 0 to 10 where 0 is no effect and 10 is complete control
[5] = Preemergence, Rate 250 g/ha, scale 0 (no effect) to 10 (complete control)
[6] = Rate 250 g/ha, Postemergence, scale 0 to 10, 0 is no effect, 10 is complete control
[7] = Rate 500 g/ha, Postemergence, scale 0 to 10, 0 is no effect, 10 is complete control
[8] = Preemergence, Rate 500 g/ha, scale of 0 to 10 where 0 is no effect and 10 is complete control

Question: Which “Plant response rating, Giant foxtail” value (giant foxtail; [1]) does the source give for `CC(C)N(C(=O)n1oc(=O)n(CCCCCl)c1=O)c1ccc(F)cc1` [Compound 712] here?
Answer: 3

Question: What about the “Giant foxtail plant response rating” value (giant foxtail; [2]) of the same molecule?
Answer: 8

Question: And the “Giant foxtail plant response rating” value (giant foxtail; [3])?
Answer: 10

Question: What about the “Plant response rating, Giant foxtail” value (giant foxtail; [4]) of the same molecule?
Answer: 10

Question: What about the “Giant foxtail plant response rating” value (giant foxtail; [5]) of the same molecule?
Answer: 10

Question: What about the “Giant foxtail plant response rating” value (giant foxtail; [6]) of the same molecule?
Answer: 8

Question: What about the “Giant foxtail plant response rating” value (giant foxtail; [7]) of the same molecule?
Answer: 9

Question: What about the “Plant response rating, Nutsedge” value (purple nutsedge; [1]) of the same molecule?
Answer: 0

Question: What about the “Nutsedge plant response rating” value (purple nutsedge; [2]) of the same molecule?
Answer: 0

Question: What about the “Nutsedge plant response rating” value (purple nutsedge; [3]) of the same molecule?
Answer: 0

Question: What about the “Plant response rating, Nutsedge” value (purple nutsedge; [4]) of the same molecule?
Answer: 0

Question: And the “Nutsedge plant response rating” value (purple nutsedge; [5])?
Answer: 0

Question: What about the “Nutsedge plant response rating” value (purple nutsedge; [6]) of the same molecule?
Answer: 0

Question: What about the “Nutsedge plant response rating” value (purple nutsedge; [7]) of the same molecule?
Answer: 0

Question: And the “Plant response rating, Velvetleaf” value (velvetleaf; [1])?
Answer: 0

Question: What about the “Velvetleaf plant response rating” value (velvetleaf; [2]) of the same molecule?
Answer: 5

Question: And the “Velvetleaf plant response rating” value (velvetleaf; [3])?
Answer: 0

Question: And the “Plant response rating, Velvetleaf” value (velvetleaf; [4])?
Answer: 3

Question: What about the “Velvetleaf plant response rating” value (velvetleaf; [5]) of the same molecule?
Answer: 3

Question: And the “Velvetleaf plant response rating” value (velvetleaf; [6])?
Answer: 6

Question: And the “Velvetleaf plant response rating” value (velvetleaf; [7])?
Answer: 6

Question: And the “Plant response rating, Blackgrass” value (blackgrass; [1])?
Answer: 0

Question: What about the “Blackgrass plant response rating” value (blackgrass; [2]) of the same molecule?
Answer: 0

Question: And the “Blackgrass plant response rating” value (blackgrass; [3])?
Answer: 3

Question: And the “Plant response rating, Blackgrass” value (blackgrass; [4])?
Answer: 6

Question: And the “Blackgrass plant response rating” value (blackgrass; [5])?
Answer: 8

Question: And the “Plant response rating, Blackgrass” value (blackgrass; [8])?
Answer: 9

Question: And the “Blackgrass plant response rating” value (blackgrass; [6])?
Answer: 5

Question: What about the “Blackgrass plant response rating” value (blackgrass; [7]) of the same molecule?
Answer: 6

Question: What about the “Plant response rating, B. signalgrass” value (surinam grass; [1]) of the same molecule?
Answer: 0

Question: What about the “B. signalgrass plant response rating” value (surinam grass; [2]) of the same molecule?
Answer: 0

Question: And the “B. signalgrass plant response rating” value (surinam grass; [3])?
Answer: 3

Question: And the “Plant response rating, B. signalgrass” value (surinam grass; [4])?
Answer: 5

Question: What about the “B. signalgrass plant response rating” value (surinam grass; [5]) of the same molecule?
Answer: 8

Question: What about the “Plant response rating, B. signalgrass” value (surinam grass; [8]) of the same molecule?
Answer: 8

Question: And the “B. signalgrass plant response rating” value (surinam grass; [6])?
Answer: 4

Question: And the “B. signalgrass plant response rating” value (surinam grass; [7])?
Answer: 8

Question: What about the “Plant response rating, Redroot pigweed” value (pigweed; [1]) of the same molecule?
Answer: 3

Question: What about the “Redroot pigweed plant response rating” value (pigweed; [3]) of the same molecule?
Answer: 6

Question: And the “Plant response rating, Redroot pigweed” value (pigweed; [4])?
Answer: 8

Question: And the “Redroot pigweed plant response rating” value (pigweed; [5])?
Answer: 8

Question: What about the “Redroot pigweed plant response rating” value (pigweed; [6]) of the same molecule?
Answer: 6

Question: And the “Redroot pigweed plant response rating” value (pigweed; [7])?
Answer: 8

Question: And the “Plant response rating, Wild oats” value (wild oat; [1])?
Answer: 0

Question: What about the “Wild oats plant response rating” value (wild oat; [2]) of the same molecule?
Answer: 0

Question: What about the “Wild oats plant response rating” value (wild oat; [3]) of the same molecule?
Answer: 0

Question: And the “Plant response rating, Wild oats” value (wild oat; [4])?
Answer: 3

Question: And the “Wild oats plant response rating” value (wild oat; [5])?
Answer: 3

Question: What about the “Wild oats plant response rating” value (wild oat; [6]) of the same molecule?
Answer: 0

Question: And the “Wild oats plant response rating” value (wild oat; [7])?
Answer: 3

Question: What about the “Plant response rating, Cocklebur” value (cocklebur; [1]) of the same molecule?
Answer: 0

Question: What about the “Cocklebur plant response rating” value (cocklebur; [2]) of the same molecule?
Answer: 0

Question: What about the “Cocklebur plant response rating” value (cocklebur; [3]) of the same molecule?
Answer: 0

Question: And the “Plant response rating, Cocklebur” value (cocklebur; [4])?
Answer: 0

Question: And the “Cocklebur plant response rating” value (cocklebur; [5])?
Answer: 0

Question: What about the “Plant response rating, Cocklebur” value (cocklebur; [8]) of the same molecule?
Answer: 0

Question: And the “Cocklebur plant response rating” value (cocklebur; [6])?
Answer: 3

Question: What about the “Cocklebur plant response rating” value (cocklebur; [7]) of the same molecule?
Answer: 3

Question: What about the “Plant response rating, Morningglory” value (morningglory; [1]) of the same molecule?
Answer: 3

Question: And the “Morningglory plant response rating” value (morningglory; [2])?
Answer: 4

Question: What about the “Morningglory plant response rating” value (morningglory; [3]) of the same molecule?
Answer: 0

Question: What about the “Plant response rating, Morningglory” value (morningglory; [4]) of the same molecule?
Answer: 0

Question: And the “Morningglory plant response rating” value (morningglory; [5])?
Answer: 0

Question: And the “Morningglory plant response rating” value (morningglory; [6])?
Answer: 10

Question: And the “Morningglory plant response rating” value (morningglory; [7])?
Answer: 10

Question: And the “Plant response rating, Wheat” value (wheat; [1])?
Answer: 0

Question: What about the “Wheat plant response rating” value (wheat; [2]) of the same molecule?
Answer: 0

Question: And the “Wheat plant response rating” value (wheat; [3])?
Answer: 0

Question: And the “Plant response rating, Wheat” value (wheat; [4])?
Answer: 0

Question: And the “Wheat plant response rating” value (wheat; [5])?
Answer: 0

Question: What about the “Wheat plant response rating” value (wheat; [6]) of the same molecule?
Answer: 0

Question: What about the “Wheat plant response rating” value (wheat; [7]) of the same molecule?
Answer: 5

Question: And the “Plant response rating, Soybean” value (soybean; [1])?
Answer: 2

Question: What about the “Soybean plant response rating” value (soybean; [2]) of the same molecule?
Answer: 5

Question: What about the “Soybean plant response rating” value (soybean; [3]) of the same molecule?
Answer: 0

Question: And the “Plant response rating, Soybean” value (soybean; [4])?
Answer: 0

Question: And the “Soybean plant response rating” value (soybean; [5])?
Answer: 0

Question: And the “Soybean plant response rating” value (soybean; [6])?
Answer: 5

Question: What about the “Soybean plant response rating” value (soybean; [7]) of the same molecule?
Answer: 5

Question: And the “Plant response rating, Corn” value (corn; [1])?
Answer: 0

Question: And the “Corn plant response rating” value (corn; [2])?
Answer: 0

Question: And the “Corn plant response rating” value (corn; [3])?
Answer: 0

Question: And the “Plant response rating, Corn” value (corn; [4])?
Answer: 0

Question: And the “Corn plant response rating” value (corn; [5])?
Answer: 0

Question: And the “Corn plant response rating” value (corn; [6])?
Answer: 0

Question: And the “Corn plant response rating” value (corn; [7])?
Answer: 0

Question: What about the “Bedstraw plant response rating” value (bedstraw; [3]) of the same molecule?
Answer: 0

Question: What about the “Plant response rating, Bedstraw” value (bedstraw; [4]) of the same molecule?
Answer: 0

Question: What about the “Bedstraw plant response rating” value (bedstraw; [5]) of the same molecule?
Answer: 2

Question: And the “Plant response rating, Bedstraw” value (bedstraw; [8])?
Answer: 5

Question: And the “Bedstraw plant response rating” value (bedstraw; [7])?
Answer: 8

Question: And the “Plant response rating, Rape” value (rape; [1])?
Answer: 2

Question: What about the “Rape plant response rating” value (rape; [2]) of the same molecule?
Answer: 3

Question: What about the “Rape plant response rating” value (rape; [3]) of the same molecule?
Answer: 0

Question: And the “Plant response rating, Rape” value (rape; [4])?
Answer: 2

Question: And the “Rape plant response rating” value (rape; [5])?
Answer: 7

Question: What about the “Rape plant response rating” value (rape; [6]) of the same molecule?
Answer: 4

Question: And the “Rape plant response rating” value (rape; [7])?
Answer: 4

Question: What about the “Plant response rating, Crabgrass” value (crabgrass; [1]) of the same molecule?
Answer: 1

Question: And the “Crabgrass plant response rating” value (crabgrass; [2])?
Answer: 4

Question: What about the “Crabgrass plant response rating” value (crabgrass; [3]) of the same molecule?
Answer: 8

Question: What about the “Plant response rating, Crabgrass” value (crabgrass; [4]) of the same molecule?
Answer: 9

Question: What about the “Crabgrass plant response rating” value (crabgrass; [5]) of the same molecule?
Answer: 10

Question: And the “Crabgrass plant response rating” value (crabgrass; [6])?
Answer: 9

Question: And the “Crabgrass plant response rating” value (crabgrass; [7])?
Answer: 9

Question: What about the “Plant response rating, Sugarbeets” value (sugar beet; [1]) of the same molecule?
Answer: 1

Question: And the “Sugarbeets plant response rating” value (sugar beet; [2])?
Answer: 3

Question: And the “Sugarbeets plant response rating” value (sugar beet; [3])?
Answer: 0

Question: What about the “Plant response rating, Sugarbeets” value (sugar beet; [4]) of the same molecule?
Answer: 4

Question: What about the “Sugarbeets plant response rating” value (sugar beet; [5]) of the same molecule?
Answer: 7

Question: What about the “Sugarbeets plant response rating” value (sugar beet; [7]) of the same molecule?
Answer: 6
